Measured values from patent publication US20220372430A1, “PROTISTS ENRICHED WITH LIPIDS RICH IN POLYUNSATURATED FATTY ACIDS” (BIOREA, priority 2015, published 2022).

Key:
Schizochytrium limacinum = conditions: added exogenously to the culture medium of Schizochytrium, in particular Schizochytrium limacinum; cited from earlier work
Crypthecodinium cohnii = conditions: n-dodecane (oxygen carrier) added to culture medium of Crypthecodinium cohnii; cited from earlier work
[1] = test system: Schizochytrium limacinum ATCC-MYA1381; assay: Culture of Schizochytrium limacinum in medium with a selenium-containing compound; fatty acid profile of total lipids by GC-FID; format: cell-based; conditions: 5 mg of selenium/L in culture medium, incubation 187 h
Protocol: A strain of Schizochytrium limacinum ATCC-MYA1381 was obtained from the ATCC bank (www.atcc.org).
The growth characteristics as well as the production of lipids by Schizochytrium limacinum were measured in the presence of different forms of selenium and compared in the absence of such additives (control referenced “Without Se” in the figures).
Pre-culture of the strain Schizochytrium limacinum ATCC-MYA1381 was carried out in standard liquid medium, the composition of which is given in Table 1. To this end, starter cultures of 50 mL were started in a 250 mL Erlen flask from a colony isolated on 633 M3 chytrid agar (www.atcc.org) and cultured at 25° C.±1° C. in heterotrophy for 48 h in this standard liquid medium. The 100 mL inoculum is then started in a 500 mL Erlen flask from these “starter” cultures at an initial concentration of 1.0×10^6 cells/m/L in the same culture conditions as the latter for 4 days. The cultures were continuously aerated by orbital stirring at 100 rpm (“revolutions per minute”).
The cultures for enrichment with selenium-containing compounds were started from the inoculum at an initial concentration of 1.0×10^6 cells/mL for a final volume of 400 mL in a 2.0 L Erlen flask at 25° C.±1° C. in heterotrophy for 187 h.
The cultures were continuously aerated by orbital stirring at 100 rpm. […]
The total concentration of biomass was monitored by measuring the dry mass (filtration on GFC filter, Whatman, then drying in an oven under vacuum, 70° C. and −0.8 bar (80 kPa), for 24 h minimum before weighing). 10^7 cells/mL were extracted in order to quantify the total lipids. […] In order to ensure complete extraction of the lipids, the tube was kept under stirring on a rocker for 6 hours in darkness, then stored at −20° C. before being analyzed by GC-FID (gas chromatography with flame ionization detection) in order to determine the quantity and the profiles of the total fatty acids extracted. […]

[2] = test system: Crypthecodinium cohnii CCMP 316; assay: Culture of Crypthecodinium cohnii in medium containing selenomethionine; fatty acid profile and total lipids; format: cell-based
Protocol: The total concentration of biomass was monitored by measuring the dry mass (filtration on GFC filter, Whatman, then drying in an oven under vacuum, 70° C. and −0.8 bar (80 kPa), for 24 h minimum before weighing). 10^7 cells/mL were extracted in order to quantify the total lipids. The method for extracting lipids is known to a person skilled in the art and is as described by the publication “Bligh E. G. & Dyer W. J., A rapid method of total lipid extraction and purification, Can. J. Biochem. Physiol 37 1959 911-917”, this method having been slightly adapted for microalga cells. Thus, for each measurement, approximately 10 mL of culture (biomass and medium), freshly sampled, was washed with demineralized water so as to remove the extracellular salts before lyophilization, then placed in a glass tube and centrifuged for 10 mins at 3600 g and at 4° C. After centrifugation, the supernatant was removed and the pellet containing the cells was lyophilized. Extraction was carried out with 6 mL of a monophasic CHCl3/MeOH (chloroform/methanol) mixture in proportions of 2/1 (V/V). In order to ensure complete extraction of the lipids, the tube was kept under stirring on a rocker for 6 hours in darkness, then stored at −20° C. before being analyzed by GC-FID (gas chromatography with flame ionization detection) in order to determine the quantity and the profiles of the total fatty acids extracted.
It was produced in the same way as in Example 1, except that the protist is Crypthecodinium cohnii instead of Schizochytrium limacinum, and that a single source of selenium was used: selenomethionine (“SeMet”).
Crypthecodinium cohnii is a protist, and more precisely a heterotrophic microalga. The strain Crypthecodinium cohnii CCMP 316 was obtained from the NCMA bank (https://ncma.bigelow.org).
The results obtained are shown in FIG. 4 which gives respectively, for Crypthecodinium cohnii after incubation for 187 h, the percentage of compound in the total lipids on the y-axis, for each of the compounds (PUFA, DHA and SFA) shown on the x-axis, in the presence of selenomethionine (reference “With SeMet”), or in the absence of a selenium-containing compound (reference “Without Se”).

C[N+](C)(C)CC(=O)[O-] [glycine betaine]
fermentation yield of polyunsaturated fatty acids (Schizochytrium limacinum): significantly increase

CCCCCCCCCCCC [n-dodecane]
production of DHA, of total lipids (Crypthecodinium cohnii): 51%

O=[Se](O)O [selenite, sodium selenite]
percentage of DHA in the total lipids ([1]; control without Se 41%): 54%
percentage of SFA in the total lipids ([1]; control without Se 44%): 26%
percentage of PUFA in the total lipids ([1]; control without Se 53%): 73%

C[Se]CC[C@H](N)C(=O)O [selenomethionine]
percentage of DHA in the total lipids ([2]; 5 mg/L of selenium in culture medium, incubation 187 h, control without Se 24%): 34%
percentage of PUFA in the total lipids ([2]; 5 mg/L of selenium in culture medium, incubation 187 h, control without Se 25%): 35%
percentage of SFA in the total lipids ([2]; 5 mg/L of selenium in culture medium, incubation 187 h, control without Se 64%): 53.5%
increase in total lipid content in the dry biomass relative to the control medium ([2]; selenium-containing culture medium versus control medium): 34%

OC[C@H]1O[C@H](O[C@H]2O[C@H](CO)[C@@H](O)[C@H](O)[C@H]2O)[C@H](O)[C@@H](O)[C@@H]1O [trehalose]
fermentation yield of polyunsaturated fatty acids (Schizochytrium limacinum): significantly increase
